# Patent publication US6846845B2, “Heat shock protein inducer” (Eisai Co., Ltd., priority 2002, dated 2005)
# Experiments:
# Assay type in all cases: in vivo, rat
# [1] = Observation of abnormalities (side-effects) during oral administration; conditions: rats, oral 50, 100, 200 and 400 mg/kg
# Protocol: (§1) An emulsion of 100% by weight of geranylgeranylacetone (GGA) with 5% by weight of gum arabic and 0.008% by weight of tocopherol was given orally to the rats described above. The oral dosages were 50 mg/kg, 100 mg/kg, 200 mg/kg and 400 mg/kg (GGA groups). […] The vehicle was administered orally to the Control Group.
# myocardial cells = assay: Electron microscope findings in left ventricular papillary muscle after ischemia/reperfusion; conditions: GGA-treated rats, 20 min no-flow ischemia and 30 min reperfusion
# Protocol: After 30 minutes of reperfusion […] 20 minutes of no-flow ischemia, the papillary muscle of the left ventricle was immediately removed from the GGA-treated and Control hearts, and cut into small blocks. The tissue blocks were then fixed in a cacodylate buffered (pH 7.4) solution containing 2.5% glutaraldehyde and paraformaldehyde at 4° C. for 2 hours, and postfixed in a cocodylate buffered (pH 7.4) solution containing 2% osmium tetroxide and 0.5% potassium ferrocyanide at 4° C. for 2 hours. The tissue blocks were then dehydrated in ethanol and embedded in epoxy resin. Ultra-thin sections were stained with uranyl acetate and lead cistate, and were viewed under a transmission electron microscope (JOEL-100CX, Tokyo).
# PKCδ = assay: Translocation of PKCδ in particulate and cytosolic heart fractions (Western immunoblotting); conditions: 24 h after GGA 200 mg/kg oral or vehicle; chelerythrine 5 mg/kg i.v. pretreatment, FIG. 10
# thioredoxin = assay: Thioredoxin induction in the heart after oral administration (Western blotting); conditions: oral 200 mg/kg, 24 hours after administration, FIG. 4(B)
# Text: Monoclonal IgG antibody cross-reactive to HSP70, HSP60 and HSP27 antibodies was purchased from Stressgen Biotechnologies Corporation ([…], Canada). Primary antibodies of nitric oxide synthase (NOS) or in other words inducible NOS (iNOS), endothelial NOS (eNOS) and neuronal NOS (nNOS) were purchased from Transduction Laboratories (Lexington, Ky.). The primary antibody of thioredoxin was kindly provided by Professor Yodoi of Kyoto University.
# as §1
# Next, the hearts were removed from the killed rats and frozen in liquid nitrogen. […]
# (§2) The total protein concentration of the myocardium was quantified by the Bradford method (Bradford M M. A rapid and sensitive method for quantitation of microgram quantities of protein utilizing the principle of protein-dye binding. Anal Biochem 1976; 72:248-254). […] The proteins were detected by exposing the ECL cells with Hyperfilm (Amersham Pharmacia, Buckinghamshire, UK). Based on this, the amount of proteins on the immunoblots was quantified using National Institutes of Health (NIH) imaging software. […]
# isolated perfused heart = assay: Isolated perfused heart experiments (Langendorff, 20 min no-flow global ischemia, 30 min reperfusion), Example 2
# Protocol: Male Sprague-Dawley rats (220-250 g) were used. GGA, as an emulsion with 5% gum arabic and 0.008% tocopherol, was given orally at a dose of 200 mg/kg. Rats were classified into 4 groups. FIG. 7 is a diagrammatic representation of experimental protocol. […] Twenty-four hours after oral administration of GGA or vehicle, rats were anesthetized (sodium pentobarbital, 50 mg/kg IP) and heparinized (500 IU/kg IP). Hearts were excised, immediately frozen in liquid nitrogen, and stored at −70° C. until use for Western blot analysis (n=4 for each group). To examine the cardiac function during ischemia and reperfusion, hearts of each group were prepared for isolated perfused experiments using Langendorff apparatus (n=7-9 for each group, FIG. 7).
# Twenty-four hours after administration-of 200 mg/kg of GGA or vehicle, rats of 4 groups were heparinized (500 IU/kg, IP) and anesthetized with sodium pentobarbital (50 mg/kg, IP). Each heart was isolated and perfused retrogradely using the Langendorff method with Krebs-Henseleit buffer (pH 7.4, [in mM] 118 NaCl, 4.7 KCl, 2.5 CaCl2, 1.2 MgSO4, 1.2 KH2PO4, 25.0 Na2HCO3, 11.0 glucose) equilibrated with 95% O2-5% CO2 gas mixture at 36.5° C. at a constant pressure of 75 mm Hg. A water-filled latex balloon was inserted through the mitral orifice into the left ventricle (LV) and the LV end-diastolic pressure (LVEDP) was adjusted to 0-5 mm Hg. During the initial 10 min of constant pressure perfusion, the perfusion flow rate was determined for each heart, which was then perfused at a determined perfusion rate using a microtube pump while the heart was covered with water-jacketed glassware and the relative humidity maintained at 90% or more. Normothermic no-flow global ischemia was initiated for 20 min, followed by reperfusion for 30 min. The coronary effluent during the 30 min of reperfusion period was collected for measurement of creatine kinase content (released CK).
# LV pressure was monitored using a pressure transducer to obtain the peak positive and negative first derivatives of LV pressure (dP/dtmax and dP/dtmin). […] Coronary perfusion pressure (CPP) was defined as the hydraulic pressure measured at the level of aortic cannulation. LV pressure, CPP and electrocardiogram were continuously recorded on a polygraph recorder (WS-681G, Nihon Kohden) and stored on a PCM data recorder (RD-111T, TEAC) for later analysis.
# Data are expressed as mean ±SEM. Serial changes in LVDP, LVEDP, CPP, and dP/dt were analyzed by two-way analysis of variance (ANOVA) followed by the Bonferroni/Dunn test, unless otherwise specified. Comparisons among groups with respect to the hemodynamic parameters at baseline and the ratio of released CK to ventricular weight were analyzed by one-way ANOVA followed by the Bonferroni/Dunn test. […]
# HSP60 = HSP60 induction in the heart after oral administration (Western blotting); conditions: oral 200 mg/kg, 24 hours after administration, FIG. 3(B)
# Protocol: as §1
# Next, the hearts were removed from the killed rats and frozen in liquid nitrogen.
# Western blotting was then performed (Maloyan A, Palmon A, Horowitz M. Heat acclimation increases the basal HSP70 level and alters its production dynamics during heat stress. Am J Physiol 1999; 276:R1506-R1515). The frozen hearts were homogenized with SDS (sodium dodecyl sulfate) buffer, centrifuged and boiled.
# as §2, with “72:248-254). The prepared hearts were then diluted in electrolyte buffer.” for “72:248-254).”
structure (smiles),measurement,setting,value
"CC(=O)CCC=C(C)CCC=C(C)CCC=C(C)CCC=C(C)C [GGA, 6, 10, 14, 18-tetramethyl-5,9, 13, 17-nonadecatetraen-2-one]",abnormalities (side-effects) during administration,[1],No particular abnormalities (side-effects) were observed
same,microstructure of myocardial cells by transmission electron microscopy,myocardial cells,preserved microstructurally
same,PKCδ in the particulate fraction / particulate/cytosol ratio versus CNT group,PKCδ,significant increase
same,thioredoxin induction in the heart,thioredoxin,not induced
same,released creatine kinase (CK) relative to ventricular weight,"isolated perfused heart; 30-min reperfusion period after 20 min ischemia, FIG. 12",lower
same,"recovery of LVDP, LVEDP and dP/dt on reperfusion versus CNT group","isolated perfused heart; 20 min no-flow global ischemia, 30 min reperfusion, FIG. 11",greater
same,HSP60 expression versus control group,HSP60,significantly decreased
